Test results reported in PMC5114273, “Activity of Scorpion Venom-Derived Antifungal Peptides against Planktonic Cells of Candida spp. and Cryptococcus neoformans and Candida albicans Biofilms” (Frontiers in Microbiology, 2016).
Ends that are not written are not given here.

Legend:
[1] = tested on: C. neoformans (B3501 serotype D); assay: microbe, parasite or virus in culture; format: cell-based, Cryptococcus neoformans var. neoformans; settings: RPMI-1640 pH 7.0, 10^4 cells/mL, 37°C, 48 h, shaking 200 rpm; at least three experiments; read-out: Minimum inhibitory concentration, C. neoformans (B3501 serotype D)
From the text: (§1) Candida albicans strain SC 5314 (ATCC MYA-2876) was provided by Dr. Joshua Nosanchuk (New York, NY, USA). C. glabrata ATCC 90030, C. parapsilosis ATCC 22019, and C. tropicalis ATCC 750 were provided by Dr. Érika Kioshima (Universidade Estadual de Maringá, Paraná, Brazil). C. neoformans var. grubii strain H99 (serotype A, ATCC 208821) was provided by Dr. John Perfect (Durham, NC, USA). C. neoformans var. neoformans B3501 (serotype D, ATCC 34873) was obtained from ATCC (Manassas, VA, USA). All strains were stored as frozen stocks in 35% glycerol at -80°C. Before each experiment, all Candida spp. strains were grown in Sabouraud’s dextrose broth overnight at 30°C with agitation. C. neoformans strains were grown in the same conditions for 24 h. Fungal cells were collected by centrifugation, washed three times in phosphate buffered saline (PBS) (137 mM NaCl, 2.7 mM KCl, 10 mM Na2HPO4, 2 mM KH2PO4) and inoculated in Roswell Park Memorial Institute (RPMI) 1640 medium supplemented with L-glutamine and buffered to pH 7.0 with 165 mM 3-(N-morpholino)propanesulfonic acid for experiments described below.
(§2) In vitro antifungal assays were performed according to broth microdilution susceptibility test from Clinical and Laboratory Standards Institute (CLSI) M27-A3 guidelines with some modifications. Briefly, twofold serial dilutions of each peptide were prepared in 96-well polystyrene microplates to a final volume of 50 μL. Amphotericin B (Amp B; A2942, Sigma-Aldrich), a known antifungal drug, was used as a positive control. Final concentrations of each peptide and Amp B ranged from 100 to 0.78 μM and 16 to 0.03 μg/mL, respectively, except in tests with C. glabrata and C. parapsilosis, where the final peptide concentration ranged from 400 to 0.78 μM. In each plate, wells were included without peptide as a growth control. Then, 50 μL of the adjusted inoculum in RPMI-1640 medium were added to each well to a final concentration of 2 × 10^3 cells/mL for Candida spp. and 10^4 cells/mL for C. neoformans strains. The plates were incubated at 37°C for 24 and 48 h, respectively. The strains of C. neoformans were also incubated with shaking (200 rpm). […] The experiments were performed at least three times on separate dates.

[2] = tested on: C. glabrata (ATCC 90030); assay: microbe, parasite or virus in culture; format: cell-based, Candida glabrata; settings: RPMI-1640 pH 7.0, 2 × 10^3 cells/mL, 37°C, 24 h; peptides 400 to 0.78 μM; at least three experiments; read-out: Minimum inhibitory concentration, C. glabrata (ATCC 90030)
From the text: as §1, §2

[3] = tested on: C. neoformans (H99 serotype A); assay: microbe, parasite or virus in culture; format: cell-based, Cryptococcus neoformans var. grubii; settings: RPMI-1640 pH 7.0, 10^4 cells/mL, 37°C, 48 h, shaking 200 rpm; at least three experiments; read-out: Minimum inhibitory concentration, C. neoformans (H99 serotype A)
From the text: as §1, §2

[4] = tested on: C. tropicalis (ATCC 750); assay: microbe, parasite or virus in culture; format: cell-based, Candida tropicalis; settings: RPMI-1640 pH 7.0, 2 × 10^3 cells/mL, 37°C, 24 h; complete inhibition of visible growth; at least three experiments; read-out: Minimum inhibitory concentration, C. tropicalis (ATCC 750)
From the text: as §1, §2

[5] = tested on: C. parapsilosis (ATCC 22019); assay: microbe, parasite or virus in culture; format: cell-based, Candida parapsilosis; settings: RPMI-1640 pH 7.0, 2 × 10^3 cells/mL, 37°C, 24 h; peptides 400 to 0.78 μM; at least three experiments; read-out: Minimum inhibitory concentration, C. parapsilosis (ATCC 22019)
From the text: as §1, §2

[6] = tested on: C. albicans (SC5314); assay: microbe, parasite or virus in culture; format: cell-based, Candida albicans; settings: RPMI-1640 pH 7.0, 2 × 10^3 cells/mL, 37°C, 24 h; complete inhibition of visible growth; at least three experiments; read-out: Minimum inhibitory concentration, C. albicans (SC5314)
From the text: as §1, §2

[7] = tested on: Candida spp. and C. neoformans; assay: Broth microdilution antifungal assay, summary over the strains tested; format: cell-based, Candida spp.; Cryptococcus neoformans; settings: data not shown
From the text: as §1
In vitro antifungal assays were performed according to broth microdilution susceptibility test from Clinical and Laboratory Standards Institute (CLSI) M27-A3 guidelines with some modifications. Briefly, twofold serial dilutions of each peptide were prepared in 96-well polystyrene microplates to a final volume of 50 μL. Amphotericin B (Amp B; A2942, Sigma-Aldrich), a known antifungal drug, was used as a positive control. Final concentrations of each peptide and Amp B ranged from 100 to 0.78 μM and 16 to 0.03 μg/mL, respectively, except in tests with C. glabrata and C. parapsilosis, where the final peptide concentration ranged from 400 to 0.78 μM. In each plate, wells were included without peptide as a growth control. Then, 50 μL of the adjusted inoculum in RPMI-1640 medium were added to each well to a final concentration of 2 × 10^3 cells/mL for Candida spp. and 10^4 cells/mL for C. neoformans strains. The plates were incubated at 37°C for 24 and 48 h, respectively. […]

[8] = tested on: peritoneal macrophages of BALB/c mice; assay: Cytotoxic test using peritoneal macrophages (LDH release); format: cell-based, mouse; settings: 24 h; for Viability of peritoneal macrophages: whole range of peptide concentrations
Experimental: BALB/c mice were injected with thioglycolate 72 h before peritoneal macrophages were harvested. They were diluted to a concentration of 10^6 cell/mL in RPMI-1640 supplemented with penicillin/streptomycin (100 U/mL, 100 µg/mL), 2 mM L-glutamine, 2 mM non-essential amino acids, 1 mM sodium pyruvate (all reagents from Sigma-Aldrich, St Louis, MO, USA) and 10% fetal bovine serum (FBS), and incubated in 96-well polystyrene microplates at 37°C, 5% CO2 for 24 h. The peptides were added then and cells were further incubated for 24 h as described previously ([Cruz et al., 2005]). Three independent experiments were performed. Cytotoxic activity was evaluated by the release of cytoplasmic enzyme lactate dehydrogenase due to cell lysis using the Cytotox kit (Promega). Briefly, at the end of the incubation period, supernatants were collected, the adhered cells were washed and the toxicity was determined according to the manufacturer’s protocol. The procedures were approved by the Ethics Committee on Animal Research of Institute of Biology (UnBDOC 52657/2011)/University of Brasília (UnB).

[9] = tested on: human erythrocytes; assay: Hemolytic assay; format: cell-based; settings: 1 h, 540 nm; for Hemolysis: all the tested concentrations (100 to 0.78 μM), 3% hematocrit in PBS
From the text: Considering the potential use of the AMPs as treatment against pathogens, even if in a more distant future, some of their properties against host cells should be addressed. To achieve this goal, we have performed hemolytic assay to evaluate if these molecules are toxic or harmless to red blood cells. Further, we have also tested the possible cytotoxicity of those peptides against other mammalian cell types by following the cell viability score after treatment. The solution of human red blood cells was treated with the peptide at levels ranging from 100 to 0.78 μM. Whole human blood was collected from healthy donors in vials with ethylenediaminetetraacetic acid (EDTA). The red blood cells were separated by centrifugation and resuspended in PBS. After the centrifugation (800 g, 5 min at 4 ± 1°C) the supernatant was removed and the red blood cells pellet was resuspended to a 3% hematocrit in sterile water (considered as 100% hemolysis) and PBS (taken as blank for spectrophotometric measurement). Fifty microliters of the 3% cell suspension in PBS were added to different final concentrations of the peptide (v/v) in a 96-well polystyrene microplate and then incubated for 1 h ([Nahar et al., 2008]; [Zhao et al., 2009]; [Qi et al., 2010]). The microplates were centrifuged and the supernatant was collected and analyzed at 540 nm using a microplate spectrophotometer. The percentage of hemolysis was calculated relative to the positive control as performed by [Nahar et al. (2008)]. The procedures were approved by the Ethics Committee on Human Research of Faculty of Medicine/University of Brasília (UnB) and conform to FDA standards (UnBDoc no. 66704/2016).

[10] = Circular dichroism, α-helix content; format: physicochemical; settings: CD, 0.2 mg/mL, 37°C, from [θ]208
Experimental: Circular dichroism (CD) assays were carried out using Jasco J-815 spectropolarimeter equipped with a Peltier-type temperature controller. Peptides (0.2 mg/mL) were analyzed in water at 37°C in absence or the presence of trifluoroethanol (TFE) (10, 30, and 50%). The mean spectrum of three consecutive experiments was corrected for the baseline buffer contribution. The observed ellipticities were converted into molar ellipticity ([θ]) based on molecular mass per residue of 115 Da ([Adler et al., 1973]). The α helix secondary structure content (fθ) was estimated considering the values of [θ]208 nm as a function of TFE concentration using the following equation ([Greenfield and Fasman, 1969]): […]

Row | Substance | MIC [1] | MIC [2] | MIC [3] | MIC [4] | MIC [5] | MIC [6] | also measured
1 | GILGKIWEGVKSLI [NDBP-5.8] | 50 µM | >400 µM | 100 µM | 25 µM | 200 µM | 100 µM | 
2 | EEDDLLGFSEEDLKAIKEHRAKNA-NH2 [ToAcP, anionic peptide from T. obscurus, LT576031] |  |  |  |  |  |  | Antifungal activity in the tested concentrations ([7]; Candida spp. and C. neoformans): did not present antifungal activity
3 | FLGMIPGLIGGLISAFK-NH2 [NDBP-4.23] | 12.5 µM | >400 µM | 25 µM | 6.25 µM | 100 µM | 50 µM | Concentrations showing low cytotoxicity ([8]; threshold of acceptable cytotoxicity 50% viability, three independent experiments): < 25 µM; Hemolysis [9]: lower than 50%
4 | ILSAIWSGIKSLF-NH2 [NDBP-5.7] | 12.5 µM | >400 µM | 25 µM | 25 µM | >400 µM | 25 µM | Viability of peritoneal macrophages [8]: higher viability; Hemolysis percent ([9]; in concentrations up to 50 μM): higher than 50%
5 | FIGMIPGLIGGLISAFK-NH2 [ToAP1] | 12.5 µM | >400 µM | 25 µM | 12.5 µM | 200 µM | 50 µM | Viability of peritoneal macrophages [8]: higher viability; Hemolysis [9]: lower than 50%
6 | FFSLIPSLIGGLVSAIK-NH2 [ToAP4, NDBP subfamily 4 peptide from T. obscurus, amidated] |  |  |  |  |  |  | Antifungal activity in the tested concentrations ([7]; Candida spp. and C. neoformans): has not shown antifungal activity
7 | FFGTLFKLLSKLIPGLMKLFSKLLER-NH2 [ToAP2S1, modified analog of ToAP2, C-terminally amidated] |  |  |  |  |  |  | Antifungal activity in the tested concentrations ([7]; C. albicans, C. glabrata and C. neoformans H99): did not show antifungal activity; Hemolysis curve compared with ToAP2 ([9]; with concentrations up to 25 μM): higher hemolysis curve; α-Helix content (%), TFE 10% ([10]; TFE 10%): 22.9%; α-Helix content (%), TFE 30% ([10]; TFE 30%): 24.3%; α-Helix content (%), TFE 50% ([10]; TFE 50%): 24.7%; α-Helix content (%), water ([10]; water, mean spectrum of three experiments): 16.5%
8 | FIGMIPGLIGGLISAIK-NH2 [ToAP3] | 25 µM | >400 µM | 100 µM | 12.5 µM | 100 µM | 25 µM | 
